# Read-outs that look alike come from different tables or passages of the source.
# Legend:
# [1] = target: T1, human type 2 5α-reductase (Homo sapiens, UniProt P31213); assay: Structural requirements / inhibition constants and IC50 on type 2 enzyme (Examples 9 and 11); format: biochemical
# T1 construct: host or cells: native human prostate tissue or recombinant from a baculovirus expression system; considered interchangeable
# T1 sequence (P31213 1-254): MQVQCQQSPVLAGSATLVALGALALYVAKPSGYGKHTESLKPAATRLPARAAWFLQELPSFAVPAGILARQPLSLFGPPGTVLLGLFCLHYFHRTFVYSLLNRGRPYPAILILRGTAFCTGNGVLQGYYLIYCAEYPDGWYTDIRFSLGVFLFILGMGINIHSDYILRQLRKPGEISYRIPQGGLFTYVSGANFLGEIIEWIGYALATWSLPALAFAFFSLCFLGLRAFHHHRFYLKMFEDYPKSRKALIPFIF
# Method: (§1) The human isozymes were employed exclusively in this research. The native isozymes were from scalp (type 1 ) or prostate (type 2) tissues, and the recombinant forms were produced by a baculovirus expression system. Except where specified, all data refer to the prostate (type 2) isozyme, the primary target of finasteride. All of the experiments described in this application were also conducted with the recombinant type 1 isozyme, either in parallel or for confirmation.
# Permutations of three structural changes to finasteride were tested for their ability to abolish time-dependent inhibition. All compounds were tested at their apparent IC50 values at pH 5.5 and 37° C.
# (§2) Following the procedures of Example 9, the compounds below were each tested with both human type 1 and type 2 enzyme.
# [2] = target: T2, human type 1 5α-reductase (Homo sapiens, UniProt P18405); assay: Inhibition of human type 1 enzyme (Example 11); format: biochemical; settings: for IC50 / kon: Table 2, human type 1
# T2 construct: made in house
# T2 sequence (P18405 1-259): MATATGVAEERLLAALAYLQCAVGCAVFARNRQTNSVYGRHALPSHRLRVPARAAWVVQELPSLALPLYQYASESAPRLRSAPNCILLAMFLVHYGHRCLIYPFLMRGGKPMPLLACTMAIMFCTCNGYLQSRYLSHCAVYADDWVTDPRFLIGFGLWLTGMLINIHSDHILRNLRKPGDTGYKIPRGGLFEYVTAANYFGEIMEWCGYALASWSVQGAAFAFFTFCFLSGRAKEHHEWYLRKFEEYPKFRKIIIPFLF
# Method: Permutations of three structural changes to finasteride were tested for their ability to abolish time-dependent inhibition. All compounds were tested at their apparent IC50 values at pH 5.5 and 37° C. Those displaying slow-binding inhibition are identified by kon values, which were determined as described for finasteride above. Those for which no time-dependent inhibition was found are identified by apparent Ki values.
# as §2
# [3] = comparison with NADP-dihydrofinasteride adduct; cited from earlier work
# [4] = Partition of released polar component into chloroform; format: physicochemical; settings: released by denaturation in guanidine hydrochloride
# Text: Eventually, it became evident that dihydrofinasteride is not the immediate product released upon denaturation of the enzyme-inhibitor complex. Several lines of evidence pointed to release of a much more polar [^3 H]-labeled component. Among these, it was disconcerting that recoveries of [^3 H]dihydrofinasteride on the reverse phase column were often only 35-45% of the radioactivity released from heat-denatured enzyme-inhibitor complex, the remainder never eluting (under acidic conditions). […] It is now clear that this polar intermediate accounts for most, or all, of the radioactivity released by any denaturation method, chromatographs anomalously, and is inadvertently converted to [^3 H]dihydrofinasteride during heat-denaturation.
# [5] = target: T3, human 5α-reductase (prostate, type 2) (Homo sapiens, UniProt P31213); assay: Inhibition of 5α-reductase by free NADP-dihydrofinasteride adduct; format: biochemical
# T3 construct: host or cells: native human prostate tissue or recombinant from a baculovirus expression system; considered interchangeable
# T3 sequence (P31213 1-254): T1 sequence (P31213 1-254)
# Method: as §1
# [6] = Nonenzymatic decomposition / stability of NADP-dihydrofinasteride adduct; format: physicochemical; settings: for degraded at 0.235 µM: 0.1m mops, pH 7.2, 235 nM, 0.1M MOPS; for ability to dissociate to [^14 C]-dihydrofinasteride after oxidation: phenazine methosulfate / pyrazine methosulfate
# Method: The integrity of the NADP-[^14 C]dihydrofinasteride adduct, defined as its ability to form [^14 C]-dihydrofinasteride, was measured by high pressure liquid chromatography on a reverse phase column (VYDAC, 4.6×250 mm, 300 Å, 5 micron, flow rate=1 mL/min) in 60% aqueous methanol. The retention time was about 14 minutes, and was consistently 1.4 min longer than that for [^3 H]finasteride, as determined by co-injection. […] The halflife for decomposition was ~1 min in 0.1M ammonium formate buffer at pH 4.00 and 100° C., and these conditions gave 88% conversion to [^14 C]-dihydrofinasteride at infinite time.
# All lines of evidence point to the covalent adduct of inhibitor and cofactor. (1) The absorbance and fluorescence spectra resemble those of NAD(P)H, the NAD-pyruvate complex and analogs and the NAD-cyanide addition complex described by Kaplan, et al. (2) On heating, the compound decomposes to (^14 C)dihydrofinasteride with a rate constant of ~6×10^-4 s^-1 and halflife of 20 min in water at neutral pH and 100° C., explaining the recovery of dihydrofinasteride in the heat-denaturation experiments above. […] (4) Securing the identification, the most prominent parent ion peak in its mass spectrum had the correct charge/mass ratio of 1116 Da.
# The rate constant for nonenzymatic breakdown of the covalent intermediate to NADP^+ and dihydrofinasteride was determined under the same conditions used for the enzyme kinetic constants. See Example 5. A constant kx =7.21+0.27×10^-7 s^-1 and a halflife of 11.1±0.4 days at pH 7.2 and 37° C. was calculated. The formation of [^14 C]dihydrofinasteride went to 75% completion at infinite lime, presumably due to competing side reactions like oxidation of the dihydropyridine ring.
# The decay of the isolated complex to NADP+ and [^14 C]dihydrofinasteride was measured as a function of time to determine the rate constant for nonenzymatic decomposition of NADP-dihydrofinasteride. The complex (235 nM) was incubated in 0.1M MOPS, 0.1% BSA, and 1 mM EDTA at pH 7.2 and 37° C., and fractions were taken each day and stored at -75° C. These were later analyzed by reverse phase chromatography as described for the assay using a neutral isocratic system of 60% methanol, where [^14 C]dihydrofinasteride has a retention time of 14 min. The y-axis is expressed relative to the total ^14 C-label in each sample injected (2,410 dpm). The reaction went to 0.753 completion at infinite time, as determined by heating at 100° C. The results, as determined by nonlinear regression are consistent with first-order decay with a rate constant kx =7.21+0.27×10^-7 s^-1 and 0.754±0.015 conversion at infinite time as determined by nonlinear regression.
# [7] = Table 1, pH 5.5, 37° C., no time-dependent inhibition, read-out: Ki (apparent)
# [8] = Table 3, human type 2, read-out: kon
smiles,measurement,setting,value
CC(C)(C)NC(=O)[C@H]1CC[C@H]2[C@@H]3CC[C@H]4NC(=O)CC[C@]4(C)[C@H]3CC[C@]12C [Compound 2],Ki,[1]; [7],8 nM
COC(=O)[C@H]1CC[C@H]2[C@@H]3CC[C@H]4NC(=O)C=C[C@]4(C)[C@H]3CC[C@]12C [Compound 3],kon,"[1]; Table 1, pH 5.5, 37° C.",0.85 10^5 × M^-1 s^-1
COC(=O)[C@H]1CC[C@H]2[C@@H]3CC[C@H]4N(C)C(=O)C=C[C@]4(C)[C@H]3CC[C@]12C [Compound 4],Ki,[1],960 nM
C[C@]12C=CC(=O)N[C@@H]1CC[C@@H]1[C@@H]2CC[C@]2(C)[C@@H](C(=O)C3CCCCC3)CC[C@@H]12 [Compound 5],kon,"[1]; Table 1, pH 5.5, 37° C.",28.00 10^5 × M^-1 s^-1
C[C@]12CCC(=O)N[C@@H]1CC[C@@H]1[C@@H]2CC[C@]2(C)[C@@H](C(=O)C3CCCCC3)CC[C@@H]12 [Compound 6],Ki,[1]; [7],0.3 nM
CN1C(=O)C=C[C@]2(C)[C@H]3CC[C@]4(C)[C@@H](C(=O)C5CCCCC5)CC[C@H]4[C@@H]3CC[C@@H]12 [Compound 7],Ki,[1]; [7],13 nM
CN1C(=O)CC[C@]2(C)[C@H]3CC[C@]4(C)[C@@H](C(=O)C5CCCCC5)CC[C@H]4[C@@H]3CC[C@@H]12 [Compound 8],Ki,[1]; [7],0.2 nM
C[C@]12C=CC(=O)N[C@@H]1CC[C@@H]1[C@@H]2CC[C@]2(C)[C@@H](C(=O)NC3C4CC5CC(C4)CC3C5)CC[C@@H]12 (some centres unmarked) [Compound 9],kon,"[1]; Table 1, pH 5.5, 37° C.",47.00 10^5 × M^-1 s^-1
CN1C(=O)CC[C@]2(C)[C@H]3CC[C@]4(C)[C@@H](C(=O)NC5C6CC7CC(C6)CC5C7)CC[C@H]4[C@@H]3CC[C@@H]12 (some centres unmarked) [Compound 10],Ki,[1]; [7],0.5 nM
CC1C[C@H]2NC(=O)C=C[C@]2(C)[C@H]2CC[C@]3(C)CC(Oc4ccc(Cl)cc4)C[C@H]3[C@H]12 (some centres unmarked) [Compound 11],IC50,"[1]; Table 3, human type 2",> 10000 nM
same,kon,[1]; [8],50 M⁻¹ s⁻¹
same,selectivity for human 5α-reductase type 1,[2],"3,300"
same,IC50,[2],8 nM
same,kon,[2],170000 M⁻¹ s⁻¹
C[C@]12C=CC(=O)N[C@@H]1CC[C@@H]1[C@@H]2CC[C@]2(C)C(CCC(=O)Nc3ccncc3)CC[C@@H]12 (some centres unmarked) [Compound 12],IC50,"[1]; Table 3, human type 2",3500 nM
same,kon,[1]; [8],140 M⁻¹ s⁻¹
same,selectivity for human 5α-reductase type 1,[2],"1,200"
same,IC50,[2],2.8 nM
same,kon,[2],170000 M⁻¹ s⁻¹
C[C@]12C=CC(=O)N[C@@H]1CC[C@@H]1[C@@H]2CC[C@]2(C)C(CC#N)CC[C@@H]12 (some centres unmarked) [Compound 13],IC50,"[1]; Table 3, human type 2",8400 nM
same,kon,[1]; [8],140 M⁻¹ s⁻¹
same,selectivity for human 5α-reductase type 1,[2],"1,200"
same,IC50,[2],3 nM
same,kon,[2],180000 M⁻¹ s⁻¹
COC(C)C1CC[C@H]2[C@@H]3CC[C@H]4NC(=O)C=C[C@]4(C)[C@H]3CC[C@]12C (some centres unmarked) [Compound 14],IC50,"[1]; Table 3, human type 2",5400 nM
same,kon,[1]; [8],130 M⁻¹ s⁻¹
same,selectivity for human 5α-reductase type 1,[2],"1,600"
same,IC50,[2],1.8 nM
same,kon,[2],200000 M⁻¹ s⁻¹
NC(=O)C1=CN([C@@H]2O[C@H](COP(=O)(O)OP(=O)(O)OC[C@H]3O[C@@H](n4cnc5c(N)ncnc54)[C@H](O)[C@@H]3O)[C@@H](O)[C@H]2O)C=CC1CC(=O)C(=O)O (some centres unmarked) [NAD-pyruvate adduct],stability,[3],so unstable as to preclude normal kinetic measurements
CC(C)(C)NC(=O)[C@H]1CC[C@H]2[C@@H]3CC[C@H]4NC(=O)C(C5C=CN([C@@H]6O[C@H](COP(=O)(O)OP(=O)(O)OC[C@H]7O[C@@H](n8cnc9c(N)ncnc98)[C@H](OP(=O)(O)O)[C@@H]7O)[C@@H](O)[C@H]6O)C=C5C(N)=O)C[C@]4(C)[C@H]3CC[C@]12C (some centres unmarked) [NADP-dihydrofinasteride adduct],radioactivity partitioning into chloroform,[4],< 5%
same,rate constant for release of adduct from competent enzyme,[5]; bounded by observed decay of enzyme-[^3 H]finasteride complex,≤ 3e-07 s⁻¹
same,"rate constant for binding of adduct to free enzyme, k-3",[5]; extrapolated to zero pyridine-nucleotide cofactor,~ 1×10^6 M^-1 s^-1
same,mode of inhibition,[5]; versus NADPH and testosterone,competitive with the first substrate (NADPH) and independent of saturating concentrations of the second (testosterone)
same,half-life,"[6]; 0.1M ammonium formate, pH 4.00, 100° C., read-out: halflife for decomposition",~1 min
same,degraded,"[6]; 0.1m ammonium formate, pH 4, 0.1M ammonium formate, pH 4.00, 100° C., read-out: conversion to [^14 C]-dihydrofinasteride at infinite time",88%
same,degraded at 0.235 µM,"[6]; pH 7.2, 37° C., read-out: conversion at infinite time, by nonlinear regression",75.4 ± 1.5%
same,degraded at 0.235 µM,"[6]; pH 7.2, read-out: completion at infinite time, by heating at 100° C.",75.3%
same,storage stability,"[6]; ammonium bicarbonate buffer, pH 9, -75° C.",stable for months
same,stability relative to NAD-pyruvate counterpart,[6]; oxidation and dissociation,"more stable to oxidation, and certainly to dissociation,than its NAD-pyruvate counterpart"
same,rate constant kx for nonenzymatic breakdown to NADP^+ and dihydrofinasteride,"[6]; pH 7.2, 37° C.",7.21+0.27×10^-7 s^-1
same,half-life,"[6]; pH 7.2, 37° C., read-out: halflife of nonenzymatic breakdown (converted)",16000 min
same,degraded,"[6]; pH 7.2, pH 7.2, 37° C., read-out: completion of formation of [^14 C]dihydrofinasteride at infinite time",75%
same,ability to dissociate to [^14 C]-dihydrofinasteride after oxidation,[6]; listed as NADP-[^14 C]dihydrofinasteride adduct,completely abolished the ability to dissociate to [^14 C]-dihydrofinasteride
same,ability to dissociate to [^14 C]-dihydrofinasteride after oxidation,[6]; listed as covalent adduct of inhibitor and cofactor,abolished by treatment with pyrazine methosulfate
same,rate constant of decomposition,"[6]; water, neutral pH, 100° C.",~ 6×10^-4 s^-1
same,half-life,"[6]; water, neutral pH, 100° C., read-out: halflife of decomposition",20 min
